# Target: T1, FSHR (Homo sapiens, UniProt P23945)
# T1 construct: expressed in transfected cells; host or cells: CHO cells, clone Cho-FSHR-LUC-1-1-43
# T1 sequence (P23945 18-695): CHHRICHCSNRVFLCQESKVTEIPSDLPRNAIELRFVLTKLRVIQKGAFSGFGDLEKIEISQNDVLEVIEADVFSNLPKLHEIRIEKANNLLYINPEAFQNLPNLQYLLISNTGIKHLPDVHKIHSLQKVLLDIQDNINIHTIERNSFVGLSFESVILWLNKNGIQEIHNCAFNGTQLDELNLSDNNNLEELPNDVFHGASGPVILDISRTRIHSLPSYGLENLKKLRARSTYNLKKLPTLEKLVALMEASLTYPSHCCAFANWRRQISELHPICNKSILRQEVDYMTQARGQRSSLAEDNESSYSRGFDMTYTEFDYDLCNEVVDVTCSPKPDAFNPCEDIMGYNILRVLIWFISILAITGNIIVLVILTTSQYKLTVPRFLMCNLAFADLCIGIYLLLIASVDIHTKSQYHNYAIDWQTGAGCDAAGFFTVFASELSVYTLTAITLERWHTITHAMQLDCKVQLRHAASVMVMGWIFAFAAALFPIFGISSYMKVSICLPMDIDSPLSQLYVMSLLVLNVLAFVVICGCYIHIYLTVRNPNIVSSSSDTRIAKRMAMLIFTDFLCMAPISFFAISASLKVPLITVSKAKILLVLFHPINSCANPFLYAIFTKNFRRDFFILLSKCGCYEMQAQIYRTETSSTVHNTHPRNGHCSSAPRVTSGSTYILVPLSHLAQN
# Assay: EC50 of cyclic AMP production in CHO FSHR cells + EC20 FSH (Assay A)
# Assay type: cell-based
# Conditions: CHO-FSHR-LUC cells, in presence of EC20 FSH, cAMP HTRF, 1 h 37° C.
# Description: EC50 of cyclic AMP production in CHO FSHR cells+EC20 FSH (Assay A)
# 2500 Cho-FSHR-LUC-1-1-43 cells were plated per well in 5 μl of phenol red free DMEM/F12+1% FBS. […] Cells were assayed by adding 100 μl of 2×EC20 FSH/IBMX in DMEM/F12+0.1% BSA) by Multidrop to 2 μl of test compound stamped in 384 well plates (compounds are diluted 1:50). […] The compound plate map was as follows: Column 1: 2 μl of DMSO; Column 2: 2 μl of DMSO; Columns 3-12 and 13-24: 2 μl of test compound, diluted 1:4 in 100% DMSO, or 2 μl of FSH, diluted 1:4 in DMEM/F12+0.1% BSA. The starting concentration for FSH was 50 nM (final concentration was 0.5 nM). […] 10 μl of mixed HTRF (CisBio #62AM4PEC) reagents were added per well and incubated at room temperature for 1 h. The plates were read on Envision using the cAMP HTRF—low volume 384 well protocol. […] Values given in percent (%) indicate the percental effect (response) at a certain concentration of agonist relative to the maximum response of the FSH standard.
row,SMILES,EC50 [nM]
1,"COC(=O)c1nc(C(=O)N2CCOCC2(C)C)c2n1-c1cc(OC(C)C)c(OC)cc1CC2 [Compound 144, 3-(3,3-Dimethyl-morpholine-4-carbonyl)-8-isopropoxy-7-methoxy-4,5-dihydro-imidazo[1,5-a]quinoline-1-carboxylic acid methyl ester]",1000 to 5000
2,COc1cc2c(cc1OC(C)C)-n1c(-c3cccc(C(F)(F)F)c3)nc(C(=O)N(C)C(C)(C)C)c1CC2 [Compound 68],100 to 1000
3,COc1cc2c(cc1OC(C)C)-n1c(-c3ccnn3C)nc(C(=O)N3CCOCC3(C)C)c1CC2 [Compound 40],1000 to 5000
4,COc1cc2c(cc1OC(C)C)-n1c(-c3cccc(OC)c3F)nc(C(=O)N3CCOCC3(C)C)c1CC2 [Compound 112],1000 to 5000
5,COc1cc2c(cc1OC(C)C)-n1c(-c3cccc4c3OCCO4)nc(C(=O)N3CCOCC3(C)C)c1CC2 [Compound 121],> 5000
6,COc1cc2c(cc1OC(C)C)-n1c(-c3cc[nH]n3)nc(C(=O)N3CCOCC3(C)C)c1CC2 [Compound 69],> 5000
7,COc1cc2c(cc1OC(C)C)-n1c(-c3cn(C)nc3C)nc(C(=O)N3CCOCC3(C)C)c1CC2 [Compound 36],> 5000
8,COc1cc2c(cc1OC(C)C)-n1c(C3=CCNCC3)nc(C(=O)N3CCOCC3(C)C)c1CC2 [Compound 131],> 5000
9,COc1cc2c(cc1OC(C)C)-n1c(-c3cc(Cl)ccc3OC(F)(F)F)nc(C(=O)N3CCOCC3(C)C)c1CC2 [Compound 117],1000 to 5000
10,"COc1cc2c(cc1OC)-n1c(-c3cccs3)nc(C(=O)N(C)C(C)(C)C)c1CC2 [Compound 1, 7,8-Dimethoxy-1-thiophen-2-yl-4,5-dihydro-imidazo[1,5-a]quinoline-3-carboxylic acid tert-butyl-methyl-amide]",100 to 1000
11,"COc1cc2c(cc1CC(C)C)-n1c(-c3cccs3)nc(C(=O)NCCNC(C)=O)c1CC2 [Compound 48, 8-Isobutyl-7-methoxy-1-thiophen-2-yl-4,5-dihydro-imidazo[1,5-a]quinoline-3-carboxylic acid (2-acetylamino-ethyl)-amide]",1000 to 5000
12,COC/C=C/c1nc(C(=O)N2CCOCC2(C)C)c2n1-c1cc(OC(C)C)c(OC)cc1CC2 [Compound 51],1000 to 5000
13,"[2H]C([2H])([2H])NC(=O)c1cc2c(cc1OC)CCc1c(C(=O)N(C)C(C)(C)C)nc(-c3cccs3)n1-2 [Compound 90, 7-Methoxy-1-thiophen-2-yl-4,5-dihydro-imidazo[1,5-a]quinoline-3,8-dicarboxylic acid 3-(tert-butyl-methyl-amide) 8-methyl-d3-amide]",1000 to 5000
14,"COc1cc2c(cc1CC(C)C)-n1c(-c3cccs3)nc(C(=O)N3CCCC34COC4)c1CC2 [Compound 57, (8-Isobutyl-7-methoxy-1-thiophen-2-yl-4,5-dihydro-imidazo[1,5-a]quinolin-3-yl)-(2-oxa-5-aza-spiro[3.4]oct-5-yl)-methanone]",1000 to 5000
15,"COc1cc2c(cc1-c1ccn(C)n1)-n1c(-c3ccc(C)s3)nc(C(=O)N3CCOCC3(C)C)c1CC2 [Compound 147, (3,3-dimethylmorpholino)(7-methoxy-8-(1-methyl-1H-pyrazol-3-yl)-1-(5-methylthiophen-2-yl)-4,5-dihydroimidazo[1,5-a]quinolin-3-yl)methanone]",100 to 1000
16,COc1cc2c(cc1OC(C)C)-n1c(-c3cncn3C)nc(C(=O)N3CCOCC3(C)C)c1CC2 [Compound 47],> 5000
17,COc1cc2c(cc1OC(C)C)-n1c(-c3cc(Cl)ccc3OC)nc(C(=O)N3CCOCC3(C)C)c1CC2 [Compound 105],1000 to 5000
18,"[2H]C([2H])([2H])N(C(=O)c1nc(-c2cccs2)n2c1CCc1cc(OC)c(CC(C)C)cc1-2)C1(C)COC1 [Compound 58, 8-Isobutyl-7-methoxy-1-thiophen-2-yl-4,5-dihydro-imidazo[1,5-a]quinoline-3-carboxylic acid methyl-d3-(3-methyl-oxetan-3-yl)-amide]",< 100

row,SMILES,EC50 [nM]
1,COc1ccc(-c2nc(C(=O)N3CCOCC3(C)C)c3n2-c2cc(OC(C)C)c(OC)cc2CC3)cc1F [Compound 118],> 5000
2,COc1cc2c(cc1OC(C)C)-n1c(-c3ccc(C)cc3)nc(C(=O)N(C)C(C)(C)C)c1CC2 [Compound 63],100 to 1000
3,COc1cc2c(cc1OC(C)C)-n1c(-c3ccc(F)c(C#N)c3)nc(C(=O)N3CCOCC3(C)C)c1CC2 [Compound 107],> 5000
4,"COc1cc2c(cc1CC(C)C)-n1c(-c3cc[nH]n3)nc(C(=O)N(C)C(C)(C)C)c1CC2 [Compound 12, 8-Isobutyl-7-methoxy-1-(1H-pyrazol-3-yl)-4,5-dihydro-imidazo[1,5-a]quinoline-3-carboxylic acid tert-butyl-methyl-amide]",> 5000
5,"COCCCc1nc(C(=O)N2CCOCC2(C)C)c2n1-c1cc(OC(C)C)c(OC)cc1CC2 [Compound 82, (3,3-Dimethyl-morpholin-4-yl)-[8-isopropoxy-7-methoxy-1-(3-methoxy-propyl)-4,5-dihydro-imidazo[1,5-a]quinolin-3-yl]-methanone]",> 5000
6,COc1cc2c(cc1OC(C)C)-n1c(-c3sccc3C)nc(C(=O)N3CCOCC3(C)C)c1CC2 [Compound 60],100 to 1000
7,COc1cc2c(cc1OC(C)C)-n1c(-c3ccc(F)c(C(F)(F)F)c3)nc(C(=O)N3CCOCC3(C)C)c1CC2 [Compound 111],1000 to 5000
8,"COc1cc2c(cc1OC(C)C)-n1c(C3CCCC3)nc(C(=O)N3CCOCC3(C)C)c1CC2 [Compound 83, (1-Cyclopentyl-8-isopropoxy-7-methoxy-4,5-dihydro-imidazo[1,5-a]quinolin-3-yl)-(3,3-dimethyl-morpholin-4-yl)-methanone]",100 to 1000
9,CCCn1nccc1-c1nc(C(=O)N2CCOCC2(C)C)c2n1-c1cc(OC(C)C)c(OC)cc1CC2 [Compound 88],100 to 1000
10,COc1cc2c(cc1OC(C)C)-n1c(-c3ccsc3)nc(C(=O)N(C)C(C)(C)C)c1CC2 [Compound 5],100 to 1000
11,COc1cc2c(cc1OC(C)C)-n1c(Br)nc(C(=O)N3CCCN(C(=O)C4CCC4)CC3)c1CC2 [Compound 3],< 100
12,COc1cc2c(cc1OC(C)C)-n1c(-c3ccc(C#N)cc3)nc(C(=O)N(C)C(C)(C)C)c1CC2 [Compound 64],1000 to 5000
13,COc1cc2c(cc1OC(C)C)-n1c(-c3c(C)nn(C)c3C)nc(C(=O)N3CCOCC3(C)C)c1CC2 [Compound 37],> 5000
14,"COc1cc2c(cc1CC(C)C)-n1c(-c3cn[nH]c3)nc(C(=O)N(C)C(C)(C)C)c1CC2 [Compound 23, 8-Isobutyl-7-methoxy-1-(1H-pyrazol-4-yl)-4,5-dihydro-imidazo[1,5-a]quinoline-3-carboxylic acid tert-butyl-methyl-amide]",1000 to 5000
15,COc1cc2c(cc1OC(C)C)-n1c(-c3cc(F)ccc3F)nc(C(=O)N3CCOCC3(C)C)c1CC2 [Compound 127],100 to 1000
16,COc1cc2c(cc1OC(C)C)-n1c(-c3cnc(C)s3)nc(C(=O)N(C)C(C)(C)C)c1CC2 [Compound 16],1000 to 5000
17,"COc1cc2c(cc1CC(C)C)-n1c(-c3cccs3)nc(C(=O)N3CCOCC3(C)C)c1CC2 [Compound 20, (3,3-Dimethyl-morpholin-4-yl)-(8-isobutyl-7-methoxy-1-thiophen-2-yl-4,5-dihydro-imidazo[1,5-a]quinolin-3-yl)-methanone]",< 100

# Source: patent publication US10138233B2, “Imidazole compounds as modulators of FSHR and uses thereof” (Merck Patent GmbH, priority 2013, dated 2018)
